Data reported in publication PMC5817083, “Oligopeptide Targeting Sortase A as Potential Anti-infective Therapy for Staphylococcus aureus” (Frontiers in Microbiology, 2018).
Entries after “also recorded” stand apart in the source; their conditions may differ. Marks after values point to notes of the source that are not given here.

Columns and labels:
[1] = molecular target: T1, SrtAC184A (Staphylococcus aureus, UniProt Q2FV99, C184A); assay: SrtA activity inhibition assay, mutant SrtAC184A; type: biochemical; conditions: Figure 5C
T1 construct: GST (cleaved yes); made in house; host or cells: Escherichia coli BL21 (DE3)
Protocol: (§1) The procedures followed for expression and purification of the mutant proteins (SrtAN114A, SrtAC184A, and SrtAR197A) were identical to those followed for the wild-type protein (SrtAΔN59).
(§2) Site-directed mutagenesis for SrtAN114A, SrtAC184A, and SrtAR197A was conducted using a recombinant vector encoding SrtAΔN59 with a QuickChange Site-Directed Mutagenesis Kit (Stratagene, La Jolla, CA, United States). The primer pairs for these three mutations were as follows: N114A forward, 5′-[…]-3′; N114A reverse, 5′-[…]-3′; C184A forward, 5′-[…]-3′; C184A reverse, 5′-[…]-3′; R197A forward, 5′-[…]-3′; and R197A reverse, 5′-[…]-3′.
(§3) The inhibitory effect of the oligopeptide against SrtA and its mutants activity was determined as previously described in 96-well black plates (PerkinElmer, Boston, MA, United States) ([Wang et al., 2015c]). Briefly, 100 μL of purified SrtA ([…]) was preincubated with 100 μL of increasing concentrations of the oligopeptide (3.125–25 μM) in reaction buffer at 37°C for 20 min. The model fluorescent peptide substrate Dabcyl-[…]-Edans (GL Biochem, Shanghai, China) (final concentration of 10 μM) was added to the reaction system, followed by incubation at 37°C for 1 h. Fluorescence intensity was measured at […] wavelengths of 350 and 520 nm, respectively. The experiments were repeated three times independently for each sample.

[2] = molecular target: T2, SrtAR197A (Staphylococcus aureus, UniProt Q2FV99, R197A); assay: Fluorescence spectroscopy quenching binding constant, SrtAR197A
T2 construct: GST (cleaved yes); made in house; host or cells: Escherichia coli BL21 (DE3)
Source text: (§4) In this study, the fluorescence quenching method was used to measure the binding constants (KA) of ligands to proteins. A 280-nm excitation wavelength with 5-nm band pass and a 345-nm emission wavelength with 10-nm band pass were used for the measurements. Details of the measurement procedures have been described previously ([Bandyopadhyay et al., 2002]; [Jurasekova et al., 2009]).

[3] = test system: surface protein A display on S. aureus; assay: Immunofluorescence assay of surface protein A; type: cell-based, Staphylococcus aureus; conditions: S. aureus cultured with oligopeptide 37°C 2.5 h, confocal microscopy
Protocol: Detection of surface protein A by immunofluorescence analysis was performed as described previously ([Chen et al., 2014]). Briefly, S. aureus were cultured in TSB with or without the oligopeptide at 37°C for 2.5 h, pelleted by centrifugation (3,000 × g, 10 min), washed three times with PBS, blocked with 2% BSA for 1 h at 37°C, stained with fluorescein isothiocyanate (FITC)-labeled goat anti-rabbit IgG for 2 h at 37°C, and observed under a laser scanning confocal microscope (Olympus, Tokyo, Japan).

[4] = test system: MRSA strain USA 300; assay: Broth microdilution MIC; type: cell-based, Staphylococcus aureus; conditions: for anti-S. aureus (bacteriostatic) activity: at concentrations that inhibit SrtA activity
Protocol: (§5) The broth microdilution method was used to determine the minimum inhibitory concentration (MIC) of the oligopeptide against the MRSA strain USA 300 according to the NCCLS guideline M31-A2. For the growth curve experiment, an overnight bacterial culture was inoculated in fresh TSB (1:100) with the indicated concentrations of the oligopeptide, and the optical density (OD) at 600 nm was measured for each sample at 1-h intervals.

[5] = molecular target: T2, SrtAR197A; assay: SrtA activity inhibition assay, mutant SrtAR197A; type: biochemical; conditions: Figure 5C
Protocol: as §1, §2, §3

[6] = test system: S. aureus invasion into J774 cells; assay: Invasion assay in J774 cells; type: cell-based, Staphylococcus aureus; conditions: 25 μM oligopeptide, infection 1 h, CFU of lysed cells
Protocol: J774 cells were adjusted to 4 × 10^5 per glass slide in 24-well plates in Dulbecco’s […] essential medium (DMEM) supplemented with 10% fetal bovine serum (FBS) and cultured in an incubator at 5% CO2 and 37°C overnight. An overnight bacterial culture was inoculated in fresh TSB (1:100, OD600 nm ≈ 0.2) with the indicated concentrations of the oligopeptide and incubated until the OD600 nm reached 1.0. Then, the bacteria were resuspended in DMEM containing 10% FBS at a concentration of 1 × 10^8 CFU/mL, and 1 mL of the resuspension was added to each well for infection at 37°C for 1 h. Invasion was terminated by incubation with 300 μg/mL gentamicin for 30 min. After three washes with PBS, coverslips were placed in 0.2% Triton X-100 with vigorous vortexing, and the diluted lysates were plated onto TSB agar plates to enumerate the number of bacteria associated with each sample.

[7] = test system: S. aureus USA 300 adherence to bovine fibronectin; assay: Fibronectin-binding assay; type: cell-based, Staphylococcus aureus; conditions: USA 300 treated with oligopeptide, crystal violet OD570 nm
Protocol: Ninety-six-well flat-bottom polystyrene plates were coated with 100 μL of 2 μg/mL fibronectin in PBS (fibronectin from bovine plasma; Sigma–Aldrich, St. Louis, MO, United States) per well and incubated at 4°C overnight. Each well was washed three times with PBS and blocked with 5% BSA in PBS at 37°C for 2 h. An overnight bacterial culture was inoculated in fresh TSB (1:100, OD600 nm ≈ 0.2) with the indicated concentrations of the oligopeptide and incubated until the OD600 nm reached 0.5. Then, the cells were centrifuged at 5000 × g for 10 min and resuspended in PBS to an OD600 nm of 1.0. One hundred microliters of bacterial suspension were added to each fibronectin-coated plate well as described above, and the plates were incubated at 37°C for 2 h. After removal of the cell suspension, 25% (v/v) formaldehyde was added to fix S. aureus. Then, the bacteria attached to fibronectin were stained with 100 μL of 0.4% crystal violet dye for 20 min at 37°C after being washed once with PBS. Following removal of the supernatant, adherence was quantified by measuring the OD570 nm for each well. USA 300 without the oligopeptide was used as a positive control, and PBS was used as a negative control.

[8] = molecular target: T3, SrtAN114A (Staphylococcus aureus, UniProt Q2FV99, N114A); assay: SrtA activity inhibition assay, mutant SrtAN114A; type: biochemical; conditions: Figure 5C
T3 construct: GST (cleaved yes); made in house; host or cells: Escherichia coli BL21 (DE3)
Protocol: as §1, §2, §3

[9] = molecular target: T3, SrtAN114A; assay: Fluorescence spectroscopy quenching binding constant, SrtAN114A
Source text: as §4

[10] = molecular target: T4, SrtAWT (Staphylococcus aureus, UniProt Q2FV99); assay: Fluorescence spectroscopy quenching binding constant, SrtAWT
T4 construct: GST (cleaved yes); made in house; host or cells: Escherichia coli BL21 (DE3)
Source text: as §4

[11] = test system: S. aureus USA 300; assay: Growth curve experiment (OD 600 nm); type: cell-based, Staphylococcus aureus; conditions: USA 300 in TSB, oligopeptide 3.125–25 μM
Protocol: as §5

[12] = molecular target: T1, SrtAC184A; assay: Fluorescence spectroscopy quenching binding constant, SrtAC184A
Source text: as §4

[13] = test system: S. aureus-induced mastitis; assay: Mouse mastitis model of S. aureus infection; type: in vivo, BALB/c mice; conditions: for protection against S. aureus-induced mastitis: mouse model
Protocol: BALB/c mice (from the Experimental Animal Center of Jilin University) were obtained and housed under specific pathogen-free conditions. All animal studies were approved by and conducted in accordance with the guidelines of the Animal Welfare and Research Ethics Committee of Jilin University. An overnight bacterial culture was inoculated in fresh TSB broth (1:100, OD600 nm ≈ 0.2) and incubated until the OD600 nm reached 0.8. Cells were harvested by centrifugation at 3,000 × g for 10 min, washed three times with PBS, and resuspended in PBS to a concentration of 1 × 10^9 CFU/mL for the mastitis infection experiment.
For establishment of a mastitis model of infection, lactating BALB/c mice, 10–12 weeks of age and weighing 30–32 g, were anesthetized using sodium pentobarbital and infected by injecting the canal glands with 50 μL of staphylococcal suspension per breast. The infected mice were administered 50 mg/kg of the oligopeptide subcutaneously at the time of infection and then at 12-h intervals. The control mice received an equal volume of PBS at the same time points. To evaluate the pathological correlates of mastitis, mammary gland tissues isolated from sacrificed mice at 48 h post-infection were fixed in 4% paraformaldehyde, stained with hematoxylin and eosin, and visualized by light microscopy. Furthermore, additional mammary gland tissues from the mice sacrificed at 48 h post-infection were homogenized in PBS containing 2% Triton X-100, after which they were appropriately diluted and inoculated onto TSB agar plates for assessment of the bacterial burden. The levels of the inflammatory cytokines IL-1β, IL-6, and TNF-α in the supernatants were measured using ELISA kits.

[14] = molecular target: T5, SrtA (SrtAΔN59) (Staphylococcus aureus, UniProt Q2FV99); assay: SrtA activity inhibition assay (fluorescent substrate Dabcyl-[…]-Edans); type: biochemical; conditions: purified SrtA preincubated with oligopeptide 3.125–25 μM, 37°C 20 min; substrate 10 μM, 1 h
T5 construct: GST (cleaved yes); made in house; host or cells: Escherichia coli BL21 (DE3)
Protocol: An Escherichia coli BL21 (DE3) strain harboring a recombinant vector encoding SrtA∆N59 was used, as described previously ([Wang et al., 2015c]). Cells were cultured overnight at 16°C with 1 mM isopropyl-β-D-thiogalactopyranoside (IPTG, Invitrogen, Carlsbad, CA, United States) in TSB containing ampicillin to induce SrtA expression until the OD600 reached 0.6 ∼ 0.8. Then, the cells were harvested by centrifugation at 5,500 × g for 10 min, resuspended in reaction buffer (50 mM Tris-HCl, 5 mM CaCl2, and 150 mM NaCl, pH 7.5) and lysed by sonication. […] The bound GST-tagged proteins were incubated with Precision Protease at 4°C overnight prior to elution with reaction buffer. Purified SrtA proteins were concentrated to […] via centrifugal filtration (Millipore, Bedford, MA, United States) and subsequently analyzed by SDS-PAGE.
The inhibitory effect of the oligopeptide against SrtA and its mutants activity was determined as previously described in 96-well black plates (PerkinElmer, Boston, MA, United States) ([Wang et al., 2015c]). Briefly, 100 μL of purified SrtA ([…]) was preincubated with 100 μL of increasing concentrations of the oligopeptide (3.125–25 μM) in reaction buffer at 37°C for 20 min. […] Fluorescence intensity was measured at […] wavelengths of 350 and 520 nm, respectively. […]

Substance | sensitivity of SrtAC184A to oligopeptide-induced inhibition compared to wild-type SrtA [1] | binding constant KA [2] | display (anchoring) of surface protein A, binding of FITC-conjugated IgG [3] | MIC ([4]; MRSA USA 300, broth microdilution) | anti-S. aureus (bacteriostatic) activity [4] | anti-S. aureus (bacteriostatic) activity ([4]; listed as oligopeptide) | sensitivity of SrtAR197A to oligopeptide-induced inhibition compared to wild-type SrtA [5] | invasion of S. aureus into J774 cells [6] | adherence to fibronectin [7] | sensitivity of SrtAN114A to oligopeptide-induced inhibition compared to wild-type SrtA [8] | binding constant KA [9] | binding constant KA [10] | growth of S. aureus [11] | binding constant KA [12] | inflammatory responses and pathological changes of mammary gland tissues ([13]; lactating BALB/c mice, 50 mg/kg at infection then 12-h intervals, 48 h post-infection, vs PBS, listed as oligopeptide, 50 mg/kg) | levels of cytokines IL-1β, IL-6 and TNF-α in mammary gland tissues ([13]; lactating BALB/c mice, 50 mg/kg, 48 h post-infection, ELISA) | bacterial burden in mammary gland tissues ([13]; lactating BALB/c mice, 50 mg/kg, 48 h post-infection, vs PBS-treated control) | protection against S. aureus-induced mastitis [13] | protection against S. aureus-induced mastitis ([13]; listed as oligopeptide) | IC50 [14]
LPRDA | significantly decreased | 5.0 ± 1.4 (1 × 10^4) L⋅mol^-1 | significantly hindered the binding of FITC-conjugated IgG; also recorded: decreased | greater than 200 μM | without anti-S. aureus activity | no anti-Staphylococcus aureus activity; also recorded: no bacteriostatic activity | significantly decreased | significant anti-invasive activity | decreased adherence | significantly decreased | 4.2 ± 1.1 (1 × 10^4) L⋅mol^-1 | 6.6 ± 1.3 (1 × 10^4) L⋅mol^-1 | not visibly affected | 5.1 ± 1.2 (1 × 10^4) L⋅mol^-1 | effectively alleviated; also recorded: Significant alleviation; also recorded: remarkably alleviated | significantly reduced | significant decrease | conferred effective protection | provided protection | –
LPRDA (PEG2000-LPRDA-NH2) | – | – | – | – | – | – | – | – | – | – | – | – | – | – | – | – | – | – | – | 10.6 µM
